34 compounds from the METLIN SMRT retention time set (Domingo-Almenara et al. 2019) can be followed below.

A short description of the data set: gradient 5% acetonitrile 3 min, to 50% in 2 min, to 85% in 15 min, held 3 min, 100 µL/min. As to conditions: column: Zorbax Extend-C18 2.1 x 50 mm; eluents: water / acetonitrile, 0.1% formic acid. The method, boiled down:
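Pure standards were analyzed in mixtures of ~100 molecules using HPLC coupled to a quadrupole time-of-flight mass spectrometer, in both positive and negative ionization mode. Separation used a Zorbax Extend-C18 column (2.1 × 50 mm, 1.8 μm) at 100 μL/min, with water and acetonitrile each containing 0.1% formic acid. Dead and dwell volumes were 40 μL and 900 μL, and data were collected over 3 months. Retention time was read from computationally picked adduct peaks, each inspected manually.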
Regarding `Cc1cc(C(=O)N2CCN(c3ccccn3)CC2)nc2ccnn12`, the RP-LC retention time came to 556 s.

`Cc1cc(C)cc(OCc2nc(CCN(C)C(=O)NCc3ccccc3)no2)c1` came in with an RP-LC retention time of 980 s.

In turn, `COc1ccccc1-c1nc(Cc2noc(Cc3ccc(F)cc3)n2)c(C)o1` returned an RP-LC retention time of 1000 s.

For `O=C1CCc2cc(NC(=O)c3n[nH]c4ccccc34)ccc2N1`, the RP-LC retention time stood at 633 s.

On to `CCOC(=O)c1c(C)[nH]c(NC(=O)N2CCN(c3ccc(OC)cc3)CC2)c1C`, for which the RP-LC retention time was found to be 703 s.

`CCCNC(=O)c1cn(-c2cc(-c3nc(C(C)C)no3)ccn2)cn1`: the RP-LC retention time came to 860 s.

On to `CN1C(=O)c2cccn2CC1C(=O)Nc1ccccc1` (centres undefined), for which the RP-LC retention time worked out at 681 s.

In turn, `CCN1CCn2cc(S(=O)(=O)Nc3ccc(F)cc3F)cc2C1=O` had an RP-LC retention time of 727 s.

Turning to `Cc1nc2cc(-c3noc(Cc4ccccc4C)n3)ccc2o1`, the RP-LC retention time was 1060 s.

Turning to `Cc1ccccc1NC(=O)CN1CCc2[nH]c3c(C)cc(F)cc3c(=O)c2C1`, the RP-LC retention time is 608 s.

Compound `COCc1nc2cccnc2n1C1CCN(C(=O)Nc2ccc3c(c2)OCCO3)CC1` returned an RP-LC retention time of 654 s.

In turn, `COc1ccc(C(=O)CSc2nc3ccccc3[nH]2)cc1` showed an RP-LC retention time of 647 s.

`O=C(Cn1nc(C(=O)N2CCCC2)c2ccccc21)NC1CCCC1` showed an RP-LC retention time of 758 s.

Compound `Cc1cc(C)cc(NC(=O)N2CC(n3cnnc3-c3ccccc3)C2)c1` displayed an RP-LC retention time of 722 s.

The compound `O=C(Nc1ccccc1)C1CCCN(S(=O)(=O)c2c[nH]c(C(=O)N3CCCC3)c2)C1` (centres undefined) came in with an RP-LC retention time of 769 s.

In turn, `COc1cc(C(=O)Nc2sc3c(c2C(N)=O)CC(C)CC3)cc(OC)c1OC` (centres undefined) yielded an RP-LC retention time of 1020 s.

In turn, `Nc1cc(C2CCN(C(=O)Cc3ccccc3F)CC2)no1` displayed an RP-LC retention time of 676 s.

`Cc1nc2cc(N3CC(C(=O)Nc4ccccc4)CC3=O)ccc2o1` (centres undefined) gave an RP-LC retention time of 703 s.

With `Cc1ccc(-n2nc(C)c3sc(N4CCCC(C(=O)NCc5ccc(F)cc5Cl)C4)nc32)cc1` (centres undefined), the RP-LC retention time worked out at 1220 s.

`COc1ccc(C)cc1NC(=O)C1CCCN1S(=O)(=O)c1cc2c(cc1C)NC(=O)C(C)O2` (centres undefined) yielded an RP-LC retention time of 880 s.

On to `O=C(O)CSc1ccc(NC(=O)Nc2ccccc2F)cc1`, for which the RP-LC retention time came to 842 s.

Compound `Nc1ncnc2sc3c(c12)CCCC3` yielded an RP-LC retention time of 588 s.

As for `CCOC(=O)C1=C(CN2CCN(CC)CC2)NC(=O)NC1c1ccccc1Cl` (centres undefined), the RP-LC retention time came out at 571 s.

`O=C(CSc1nc2ncccc2[nH]1)NC1CCCCC1`: the RP-LC retention time worked out at 621 s.

Compound `CN(C)c1ccc(C(CNS(C)(=O)=O)N2CCc3ccccc3C2)cc1` (centres undefined) showed an RP-LC retention time of 573 s.

In turn, `CCn1c(=O)sc2cc(S(=O)(=O)N3CCC(C(=O)Nc4ccc(F)cc4C)CC3)ccc21` returned an RP-LC retention time of 911 s.

`CC(C)(C)NCC(O)c1ccccc1Cl` (centres undefined) showed an RP-LC retention time of 650 s.

The compound `Cc1csc(-c2cc(S(=O)(=O)N3CCCCC3)cn2CC(=O)N2CCCC2)n1` registered an RP-LC retention time of 890 s.

`CCCc1noc(-c2ccc(-n3cnc(C(=O)NC4CCCCC4)c3)nc2)n1` registered an RP-LC retention time of 741 s.

Turning to `O=C(Nc1ccc(-c2nc(-c3ccccc3)co2)cc1)c1cccs1`, the RP-LC retention time was 1100 s.

The compound `O=C(O)c1cnc(N2CCOCC2)nc1-c1ccc(Cl)cc1` registered an RP-LC retention time of 823 s.

In the case of `COc1ccc(-c2cc(C(=O)N3CCN(c4ccc(N5CCOCC5)nn4)CC3)[nH]n2)cc1`, the RP-LC retention time amounted to 625 s.

As for `COc1ccc(-c2nnc(N3CCC(C(=O)N4CCN(c5ccccc5)CC4)CC3)o2)cc1`, the RP-LC retention time is 859 s.

The compound `COC(=O)c1ccccc1NC(=O)C12CCC(C1)C(C)(C)C2=O` (centres undefined) displayed an RP-LC retention time of 951 s.
